Structures are written as SMILES.

Common to all, as to assay type: in vivo
The subject of test [1] is bile flow and bile solids. The test can be described thus: Chloretic activity: bile flow and bile solids after bile duct cannulation. The note with it: rats, 50 mg kg−1 i.d.; bile collected 0-5 hours; mean ± SE. An excerpt: The liver, by producing bile, plays an important role in digestion. The presence of bile in the intestine is necessary to accomplish the digestion and absorption of fats as well as absorption of the fat-soluble vitamins—A, D, E & K. Bile is also an important vehicle of excretion. It removes many drugs, toxins, bile pigments and various inorganic substances either derived from the diet or synthesized by the body as cholesterol or as cholic acid.
Effect on the liver bile flow of test drug and that of vehicle is carried out after cannulating the bile duct in normal anaesthesied rats. Bile collected is from each animal from 0-5 hours (Klaassen, 1969, Donal et al. 1953). (Table 5)

Test [2] has as its system galactosamine, paracetamol and CCl4 as hepatotoxins. The test can be described thus: Earlier RRL Jammu study of hepatoprotective effect against galactosamine, paracetamol and CCl4. As to conditions: synthesized constituent; silymarin as reference material.
Test [3] relates to Acetaminophen (APAP) induced hepatotoxicity. The test can be described thus: Paracetamol (Acetaminophen, APAP) induced hepatotoxicity after diethyl-ether inhalation. As to conditions: mice, 50 mg kg−1 p.o., mean ± S.E. An excerpt: Paracetamol (APAP, Acetaminophen): It is a therapeutic agent widely used as analgesic/antipyretic drug. When taken in large doses it causes hepatic necrosis which leads to biochemical changes having clinical features similar to those of acute viral hepatitis in humans (Proudfoot and Wright, 1970). The similar effect is observed in animals. The toxic effect can be potentiated if it is given several hours after the anesthetic ether inhalation (Wells et. al., 1986). Liver injury is induced by injecting paracetamol (200 mg.kg^-1) interaperitoneally in normal saline (pH 9.4) six hour after inhalation of anesthetic ether (4 ml/4 min/6 animals) in a closed chamber. The control animals received the equal volume of vehicle. […] (Table 2) GPT and GOT: Pyruvate formed by transamination reaction is determined spectrophotometrically after reaction with 2,4-dinitrophenylhydrazine (Reitman and Frankel, 1957). ALP: p-nitrophenol formed in alkaline medium is measured spectrophotometrically using p-nitrophenyl phosphate as substrate (Walter and Schutt, 1974). Bilirubin : Total bilirubin is measured by diazotization reaction with NaNO2 (Malloy and Evelyn, 1937) Triglycerides: Triglycerides from serum are extracted with isopropanol and sopanified with KOH. The liberated glycerol is converted to formaldehyde by periodate and determined after reaction with acetyl acetone. […]

In the case of `C[C@H](CCC(=O)O)[C@H]1CC[C@H]2[C@@H]3C(=O)C[C@@H]4CC(=O)CC[C@]4(C)[C@H]3CC(=O)[C@]12C` [DHC, Dehydrocholic acid], in test [1], the “Bile flow (ml %), % Increase (as compared to normal)” value is 38.40 ± 2.76% and the “Bile solids (mg %), % Increase (as compared to normal)” value worked out at 28.13 ± 3.89%.

For `CCCCCCCC/C=C/CCCCCCCCCCCCCC(=O)O` [TCA, trans-tetracos-15-enoic acid], in test [2], the “hepatoprotective effect against galactosamine, paracetamol and CCl4 as hepatotoxins” value is on record as “dose related hepatoprotective effect”. For the same compound, the “Hepatic Lipid Peroxidation” value in test [3] is given as 44.24 ± 2.22 n moles MDA/g liver.

The values above are taken from patent US6949586B2, “Synergistic composition of trans-tetracos-15-enoic acid and Apocynin and method of treatment for hepatotoxicity” (Council of Scientific Research, priority 2002, dated 2005).
